Data on 1 compound can be found in patent US11674952B2, “Embryonic cell-based therapeutic candidate screening systems, models for Huntington's Disease and uses thereof” (The Rockefeller University, priority 2016, dated 2023).

Entries after “also recorded” stand apart in the source; their conditions may differ.

The experiment has as its system RUES2-Q150 cells. Description: Germ layer micropattern screen: BMP4-differentiated hESC colonies, reversion of the HD-dependent micropattern signature. The format is cell-based, human. The following applies: kinetin 1 μM for 2-24 hours prior to BMP4 addition. The text has this: Micropattern cultures were established according to methods described in Warmflash et al., Nature Methods. 2014 August: 11(8):847-854. This procedure is briefly described in Materials and Methods.
Cells confined to circular micropatterns and differentiated with BMP4 produce an ordered array of germ layers along the radial axis of the colony. This order results from self-organized signaling which confines response to the BMP4 to the colony border while inducing a broader gradient of Activin/Nodal signaling to pattern mesendodermal fates. Control of fates is established from the border of the colony so that as colony size is reduced the central fates are lost. Thus, given minimal geometric and signaling cues, hESCs will self-organize to generate embryonic patterns such as those of the human gastrula.
The Applicants next applied micropattern technology to the isogenic hESC lines for Huntington's Disease. […]
The spatial expression of germ markers Sox2, Bra, and Cdx2 was compared between RUES2 and RUES2-Q150 cells (FIG. 6). […] Tri dimensional geometry was evaluated by first generating images of cells at different focal planes known as “Z-stacks”. […]

In the case of `c1coc(CNc2ncnc3[nH]cnc23)c1` [kinetin], the “rescue of HD-dependent micropattern signature (SOX2+ area; Sox2 and Bra/Cdx2 territories)” value was “reduced or reverted HD-dependent micropattern signature; also recorded: restore the HD-dependent micropattern signature; also recorded: at least partially rescued; also recorded: partial but significant rescue of phenotype”; the “rescue of cell number phenotype (total number of cells per micropattern, cell density)” value is reported as “restored the cell density; also recorded: restored the cell number phenotype; also recorded: rescues the cell number phenotype”.
